Molecular target: Human factor D (Homo sapiens (Human), UniProt P00746)
Assay: Human Factor D Assay
Format: biochemical
Procedure: The assay of Example 8 was used to determine the IC50's of the compounds. Other standard factor D inhibition assays are also available.
Example 8. Human Factor D Assay
Human factor D (purified from human serum, Complement Technology, Inc.) at 80 nM final concentration is incubated with test compound at various concentrations for 5 minutes at room temperature in 50 mM Tris, 1M NaCl, pH 7.5. A synthetic substrate Z-L-Lys-SBzl and DTNB (Ellman's reagent) are added to final concentrations of 100 μM each. The increase in color is recorded at OD405 nm in a microplate in kinetic mode over 30 minutes with 30 second time points in a spectrofluorimeter. IC50 values are calculated by non-linear regression from the percentage of inhibition of complement factor D activity as a function of test compound concentration.

Chain of Human factor D (P00746 26-253): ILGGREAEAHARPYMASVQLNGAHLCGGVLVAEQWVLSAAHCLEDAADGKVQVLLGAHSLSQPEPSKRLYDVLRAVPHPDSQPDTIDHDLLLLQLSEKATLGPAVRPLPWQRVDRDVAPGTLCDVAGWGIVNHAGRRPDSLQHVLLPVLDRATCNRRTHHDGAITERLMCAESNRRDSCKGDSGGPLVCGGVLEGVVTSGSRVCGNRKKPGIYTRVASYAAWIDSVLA

Compound `CC(=O)c1cn(CC(=O)N2C[C@H](F)C[C@H]2C(=O)Nc2cccc(Br)c2)c2ccc(Oc3ncc(Br)cn3)cc12` [Compound 35] has an IC50 of less than 1 µM.

From patent US10550140B2 (Achillion Pharmaceuticals, Inc., priority 2014, dated 2020)
